The subject of assay [1] is FOXM1^A2 mRNA and FOXM1^BC mRNA. Description: Splicing assay (FOXM1), qPCR of isoform mRNAs. The format is cell-based. The method, then: Various cells lines were treated with the SMSMs described herein. RNA was then isolated, cDNA synthesized, qPCR performed and the levels of various mRNA targets of the SMSMs were determined. In some instances, RNA was isolated, cDNA synthesized, qPCR performed and the levels of mRNA isoforms in the various cell samples were determined.
On the day of the experiment, a 96-well plate was seeded with the cell lines of interest. The cells were diluted with full growth media to a concentration of 2.0×10^5 cells/mL and 100 μL of cells were added to each well (20,000 cells per well). The cells were treated with a compound immediately after plating.
The compounds were then added to the cell plate using the HP compound dispenser. In the initial experiment, a top concentration of 10 μM and an 8 point 4-fold dilution scheme was used. The stock compounds were made at a concentration of 5 mM, and the DMSO concentration was set to 0.2%. DMSO was used to normalize all the compound-containing wells and the untreated cells.
The treated cells were incubated at 37° C. in a 5% CO2 incubator for the desired amount of time. Plates were placed in a plastic bag with a wet paper towel to prevent evaporation.
RNA was isolated using the Cells to CT kit (ThermoFisher, AM1728). The cells were washed once with 100 μL cold PBS. 50 μL of lysis buffer was added to each well/tube (49.5 μL lysis buffer+0.5 μL DNase I per well/tube). The lysis reaction was mixed and incubated at room temperature for 5 minutes. 5 μL of stop solution was added directly into each cell lysis reaction and mixed by pipetting up and down 5 times. The plates/tubes were incubated at room temperature for 2 minutes then placed on ice if the cDNA synthesis was to be performed immediately. Otherwise, the plates/tubes were stored at −80° C. cDNA synthesis reactions were then performed. Reverse Transcription (RT) Master mix was prepared according to the table below.
40 μL RT master mix was added to PCR tubes or plate wells. 10 μL of RNA was added to each tube/well. The RT thermal cycler program was then run and tubes or plate wells were incubated at 37° C. for 1 hour, then at 95° C. for 5 minutes to deactivate the enzyme.
The qPCR was performed using a QuantStudio 6 instrument (ThermoFisher) and the following cycling conditions and according to the tables below. All samples and standards were analyzed in triplicate. Cycle 1: 2 minutes at 50° C. Cycle 2: 10 minutes at 95° C. Cycle 3 (repeat 40 times): 15 seconds at 95° C., 1 minute at 60° C.
The determined isoform 2and isoform 1quantities were then be used to determine the isoform 2: […] at the various compound concentrations. The PPIA quantities were used in the normalization to account of cell proliferation effects of the compounds.
The dilution necessary to make the top standard is calculated. A top concentration 200,000,000 copies/μL of the stock plasmid was prepared in TE buffer. A series of 10-fold dilutions, also in TE, were then made. A total of 5 μL of each standard was used in a qPCR well to generate samples containing 109 copies, […], 10^7copies, 10^6 copies, 10^5 copies, 10^4 copies, 10^3 copies, 10^2 copies, 10^1copies, and 0 copies.
An assay to measure the FOXM1^A2 mRNA and FOXM1^BC mRNA, or MADD^WT (isoform 4) mRNA and MADD^Ex16 (isoform 3) mRNA, or MAPTau^4R mRNA and MAPTau^3R mRNA simultaneously in cell wells was performed. The RNA values were measured relative to DMSO control and also included a housekeeping gene, PPIA to ensure data was consistent. The mRNA values were measured after 24 hours of incubation with the SMSM compounds.
In general terms: Quantitative PCR measures a nucleic acid by following its amplification.

In another assay the test system is A-673 cells. Nature of the assay: Cell viability, crystal violet staining. The format is cell-based. In outline: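 Readout is absorbance at 570 nm of crystal violet, taken up in 0.1 M sodium citrate in 50% ethanol after staining with 0.5% dye in 25% methanol. Plates held 5×10^3 cells per well, and compounds were added one day after seeding for 72 hours. Data are relative to vehicle, mean±SE.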

The mark [2] stands for this setting: Homo sapiens, A673, cell viability, read-out: A-673 IC50 (nM) Cell viability.
The mark [3] stands for this setting: FoxM1 BC mRNA decrease (exon included), read-out: Splice IC50 (nM) FoxM1 BC mRNA decrease (exon included).
Setting [4] is: read-out: Splice EC50 (nM) FoxM1 A mRNA increase (exon excluded).
Setting [5] is: Homo sapiens, A673, cell viability, read-out: A-673 IC50 (nM), Cell viability.
The mark [6] stands for this setting: Homo sapiens, A673, cell viability, read-out: A-673 IC50 (nM), cell viability.

Like-named read-outs stand apart in the source and are kept apart here.

As to “2-(6-(((1R,3s,5S)-8-azabicyclo[3.2.1]octan-3-yl)oxy)pyridazin-3-yl)-5-(1H-1,2,3-triazol-4-yl)phenol [compound 253]”, in assay [1] (FoxM1 A mRNA increase (exon excluded), 0.1-1000 nM, 24 hours, read-out: Splice EC50 (nM), FoxM1 A mRNA increase (exon excluded)), the EC50 – broadly, the midpoint of the concentration-response curve – fell in the range of 251 to 500 nM. Besides, the IC50 lay within 251 to 500 nM in assay [1] (FoxM1 BC mRNA decrease (exon included), 0.1-1000 nM, 24 hours, read-out: Splice IC50 (nM), FoxM1 BC mRNA decrease (exon included)) and 501 to 1000 nM in the assay with A-673 cells (cell viability, read-out: A-673 IC50 (nM), Cell viability).
In the case of `CC1(C)CC(N(c2ccc(-c3ccc(-c4cn[nH]c4)cc3O)nn2)C2CC2)CC(C)(C)N1` [compound 129, 2-(6-(cyclopropyl(2,2,6,6-tetramethylpiperidin-4-yl)amino)pyridazin-3-yl)-5-(1H-pyrazol-4-yl)phenol], the IC50 was 1 to 10 nM in assay [1] (24 h, LP-LoVo cells, 24 hours, table does not say EC50 or IC50, read-out: FOXM1); under 1 nM in assay [1] (24 h, MDA-MB-231-luc cells, 24 hours, table does not say EC50 or IC50, read-out: FOXM1); under 1 nM in assay [1] (Homo sapiens, A673, 24 h, A-673 cells, 24 hours, table does not say EC50 or IC50, read-out: FOXM1); under 1 nM in assay [1] (Homo sapiens, A-375, 24 h, A-375 cells, 24 hours, table does not say EC50 or IC50, read-out: FOXM1); under 1 nM in assay [1] (Homo sapiens, MDA-MB-157, 24 h, MDA-MB-157 cells, 24 hours, table does not say EC50 or IC50, read-out: FOXM1); 1 to 10 nM in assay [1] (Homo sapiens, SK-OV-3, 24 h, SKOV3 cells, 24 hours, table does not say EC50 or IC50, read-out: FOXM1). Moreover, the IC50 was under 1 nM in assay [1] (Homo sapiens, Z-138, 24 h, Z-138 cells, 24 hours, table does not say EC50 or IC50, read-out: FOXM1) and 251 to 500 nM in the assay with A-673 cells (setting [2]).
For `CC1(C)CC(N(c2ccc(-c3ccc(-c4cn[nH]c4)cc3O)nn2)C2CCC2)CC(C)(C)N1` [compound 130, 2-(6-(cyclobutyl(2,2,6,6-tetramethylpiperidin-4-yl)amino)pyridazin-3-yl)-5-(1H-pyrazol-4-yl)phenol], the IC50 (in assay [1] (setting [3]); in the assay on A-673 cells (setting [2])) was over 1000 nM each time. Besides, the EC50 in assay [1] (setting [4]) was over 1000 nM.
As to `Oc1cc(-c2cn[nH]c2)ccc1-c1ccc(N2CCC3CNCCC32)nn1` (centres unmarked) [compound 131, 2-(6-(octahydro-1H-pyrrolo[3,2-c]pyridin-1-yl)pyridazin-3-yl)-5-(1H-pyrazol-4-yl)phenol], the IC50 in assay [1] (setting [3]) is 251 to 500 nM; in the assay on A-673 cells (setting [2]), over 1000 nM. Besides, the EC50 in assay [1] (setting [4]) fell in the range of 101 to 250 nM.
As for `COCCN(c1ccc(-c2ccc(-c3cn[nH]c3)cc2O)nn1)C1CC(C)(C)NC(C)(C)C1` [compound 133, 2-(6-((2-methoxyethyl)(2,2,6,6-tetramethylpiperidin-4-yl)amino)pyridazin-3-yl)-5-(1H-pyrazol-4-yl)phenol], the IC50 (in assay [1] (setting [3]); with A-673 cells (setting [2])) was over 1000 nM each time. In addition, the EC50 in assay [1] (setting [4]) was 501 to 1000 nM.
For `CN(C)C(=O)c1cc2cc(O)c(-c3ccc(N(C)[C@@H]4C[C@H]5CCC[C@@H](C4)N5)nn3)cc2o1` [compound 295, 6-(6-(((1R,3s,5S)-9-azabicyclo[3.3.1]nonan-3-yl)(methyl)amino)pyridazin-3-yl)-5-hydroxy-N,N-dimethylbenzofuran-2-carboxamide], the IC50 in the assay on A-673 cells (setting [5]) was in the range of 251 to 500 nM.
As for `CNC(=O)c1cc2cc(-c3ccc(N(C)[C@@H]4C[C@H]5CCC[C@@H](C4)N5)nn3)c(O)cc2o1` [compound 297, 5-(6-(((1R,3s,5S)-9-azabicyclo[3.3.1]nonan-3-yl)(methyl)amino)pyridazin-3-yl)-6-hydroxy-N-methylbenzofuran-2-carboxamide], the IC50 in the assay with A-673 cells (setting [5]) fell in the range of 10 to 100 nM.
Consider `CN(C)C(=O)c1cc2cc(-c3ccc(N(C)[C@@H]4C[C@H]5CCC[C@@H](C4)N5)nn3)c(O)cc2o1` [compound 298, 5-(6-(((1R,3s,5S)-9-azabicyclo[3.3.1]nonan-3-yl)(methyl)amino)pyridazin-3-yl)-6-hydroxy-N,N-dimethylbenzofuran-2-carboxamide], for which, in the assay on A-673 cells (setting [5]), the IC50 lay in the range of 10 to 100 nM.
The same measure, in the same setting: the result for `CN(c1ccc(-c2cc3cc(C(=O)NC4CC4)oc3cc2O)nn1)[C@@H]1C[C@H]2CCC[C@@H](C1)N2` [compound 299, 5-(6-(((1R,3s,5S)-9-azabicyclo[3.3.1]nonan-3-yl)(methyl)amino)pyridazin-3-yl)-N-cyclopropyl-6-hydroxybenzofuran-2-carboxamide] reads 10 to 100 nM; that for `CN(c1ccc(-c2ccc(-c3cc(=O)n(C)cn3)cc2O)nn1)[C@@H]1C[C@H]2CCC[C@@H](C1)N2` [compound 300, 6-(4-(6-(((2R,3s,5S)-9-azabicyclo[3.3.1]nonan-3-yl)(methyl)amino)pyridazin-3-yl)-3-hydroxyphenyl)-3-methylpyrimidin-4(3H)-one], 10 to 100 nM; that for `CN(c1ccc(-c2ccc(-c3cnn(C(F)F)c3)cc2O)nn1)[C@@H]1C[C@H]2CCC[C@@H](C1)N2` [compound 301, 2-(6-(((1R,3s,5S)-9-azabicyclo[3.3.1]nonan-3-yl)(methyl)amino)pyridazin-3-yl)-5-(1-(difluoromethyl)-1H-pyrazol-4-yl)phenol], 10 to 100 nM.
Take `C[C@]12CC[C@](C)(C[C@@H](N(c3ccc(-c4ccc(-c5cn[nH]c5)cc4O)nn3)C3CC3)C1)N2` [compound 302, 2-(6-(cyclopropyl((1R,3s,5S)-1,5-dimethyl-8-azabicyclo[3.2.1]octan-3-yl)amino)pyridazin-3-yl)-5-(1H-pyrazol-4-yl)phenol]: in the assay with A-673 cells (setting [5]), the IC50 lay within 10 to 100 nM.
Still for that read-out and setting: the result for `[2H]C([2H])([2H])c1ncc(-c2ccc(-c3ccc(N(C)[C@H]4C[C@]5(C)CC[C@](C)(C4)N5)nn3)c(O)c2)o1` [compound 303, 2-(6-(((1R,3s,5S)-1,5-dimethyl-8-azabicyclo[3.2.1]octan-3-yl)(methyl)amino)pyridazin-3-yl)-5-(2-(methyl-d3)oxazol-5-yl)phenol] reads 10 to 100 nM; that for `CN(c1ccc(-c2ccc(-c3ccn(C)c(=O)n3)cc2O)nn1)[C@H]1C[C@]2(C)CCC[C@](C)(C1)N2` [compound 305, 4-(4-(6-(((1R,3s,5S)-1,5-dimethyl-9-azabicyclo[3.3.1]nonan-3-yl)(methyl)amino)pyridazin-3-yl)-3-hydroxyphenyl)-1-methylpyrimidin-2(1H)-one], 101 to 250 nM.
For the compound `CN(c1ccc(-c2ccc(-c3cc[nH]c(=O)c3)cc2O)nn1)[C@H]1C[C@]2(C)CCC[C@](C)(C1)N2` [compound 306, 4-(4-(6-(((1R,3s,5S)-1,5-dimethyl-9-azabicyclo[3.3.1]nonan-3-yl)(methyl)amino)pyridazin-3-yl)-3-hydroxyphenyl)pyridin-2(1H)-one], the IC50 is under 10 nM in the assay on A-673 cells (setting [6]) and under 3 nM in the assay with A-673 cells (Homo sapiens, A673, read-out: A-673 cell viability (IC50)).
In the case of `CN(c1ccc(-c2ccc(-c3ccnc(OC(F)F)c3)cc2O)nn1)[C@H]1C[C@]2(C)CCC[C@](C)(C1)N2` [compound 308, 5-(2-(difluoromethoxy)pyridin-4-yl)-2-(6-(((1R,3s,5S)-1,5-dimethyl-9-azabicyclo[3.3.1]nonan-3-yl)(methyl)amino)pyridazin-3-yl)phenol], the IC50 with A-673 cells (setting [6]) fell in the range of 501 to 1000 nM.

The record behind these values is patent publication US11008572B2, “Methods and compositions for modulating splicing” (SKYHAWK THERAPEUTICS, INC., priority 2017, dated 2021).
